Results reported in PMC8469090 (Pharmaceutics, 2021).

Tested on: cutaneous tumors (basal cell carcinoma, squamous cell carcinoma, melanoma, and others)
Assay: Tumor response 2 months after electrochemotherapy (RECIST 1.1)
Conditions: for tumor complete response rate 2 months after therapy: biopsied tumors, electrochemotherapy with i.v. bleomycin 15,000 IU/m^2; for Tumor Response (All Tumors): electrochemotherapy, 2 months, RECIST 1.1
Procedure: All patients who presented with skin cancers, recurrent disease (and/or metastatic disease) or a second primary tumor in the head and neck region were either not suitable for conventional treatments or refused them. The patients were treated with electrochemotherapy at the Department of Otorhinolaryngology and Cervicofacial Surgery, University Medical Centre Ljubljana, Slovenia or the Department of Dermatology and Allergology, University of Szeged, Hungary. […] Treatment with electrochemotherapy was previously agreed upon by a multidisciplinary board, and written informed consent was obtained from all eligible patients. The selection of patients was performed according to the NICE guidelines. The included patients were older than 18 years and presented with different histologies of cutaneous tumors (basal cell carcinoma, squamous cell carcinoma, melanoma, and others). […] In the study, altogether 25 patients were included; 8 patients younger than 65 for blood sample collection, 4 patients younger than 65 for blood and tumor sample collection and 13 patients for tumor sample collection with no age limitation.
Electrochemotherapy was performed according to the updated standard operating procedures [24]. […] Electric pulses for electrochemotherapy were generated by a Cliniporator pulse generator (IGEA, s.r.l., Carpi, Italy) and delivered by fixed geometry electrodes, i.e., mainly electrodes with eight needles arranged in two rows of four needles each with a distance of 4 mm between the rows. In one application of electric pulses, eight pulses with a voltage of 400 V, a pulse duration of 100 µs and a frequency of 5000 Hz were applied. The number of applications was adjusted to the size of the treated tumors.
The tumor volumes were calculated according to the SOP, i.e., a × b^2 × π/6. Tumor response 2 months after electrochemotherapy was evaluated with a clinical exam according to RECIST 1.1 criteria [25].

In the case of bleomycin, the “tumor complete response rate 2 months after therapy” value (BCC (8/9)) is reported as 89%, the “tumor complete response rate 2 months after therapy” value (SCC (4/5)) is reported as 80% and the “Tumor Response (All Tumors)” value (Table 3 patient 1 (BCC, 3 lesions, 24,000 IU)) is reported as 1 CR, 2 PR. For the same substance, the “Tumor Response (All Tumors)” value (Table 3 patient 5 (BCC, 5 lesions, 27,000 IU)) was 4 CR, 1 SD, the “Tumor Response (All Tumors)” value (Table 3 patient 7 (BCC, 5 lesions, 24,000 IU)) was 5 CR and the “Tumor Response (All Tumors)” value (Table 3 patient 11 * (SCC, 6 lesions, 30,000 IU)) was 6 CR. The “Tumor Response (All Tumors)” value (Table 3 patient 15 * (Melanoma, 3 lesions, 29,100 IU)) was 3 CR, the “Tumor Response (All Tumors)” value (Table 3 patient 17 (Porocarcinoma, 2 lesions, 29,850 IU)) was 2 CR and the “Tumor Response (All Tumors)” value (Table 3 patient 19 (BCC, 16 lesions, 21,900 IU)) was 11 CR, 5 PR.
